This is an account of results in ChEMBL document CHEMBL1124787, “Conformationally constrained congeners of 6-aryl-5-methyl-4,5-dihydro-3(2H)-pyridazinones active on the cardiovascular system: conformational studies by molecular mechanics calculations and 1H NMR spectroscopy” (1990).

For one test, the system named is Mus musculus. The test is described as follows: Antithrombotic activity after oral administration in mouse was measured as protection vs control percent. It is filed as functional.
The next test is filed under the species Cavia porcellus. As to the kind of experiment: Inotropic activity evaluated in vitro in spontaneously beating guinea pig atria;IA-Inactive. The class given is functional.
A further test has as its system Rattus norvegicus. As to the kind of experiment: The dose (administered orally) that lowered blood pressure by 50 mmHg in conscious, spontaneously hypertensive rats (SHR) (peak effect); IA-Inactive. The class given is functional, organism-based.

Molecules are shown by their SMILES. Calls of active or inactive are those of the source. The calls are words filed in the database; no cut-off is given here.

`CC(=O)Nc1ccc2c(c1)CC1CC(=O)NN=C21` (stereo not given): the Activity with Mus musculus was 100.
On the same count and under the same terms, next, `Nc1ccc2c(c1)CC1CC(=O)NN=C21` (stereo not given): 87; `CC(=O)Nc1ccc2c(c1)CCC1CC(=O)NN=C21` (stereo not given): 100.
In turn, `Nc1ccc2c(c1)CCCC1CC(=O)NN=C21` (stereo not given) came in with an Activity with Mus musculus of 45. In the test listed under Cavia porcellus, the pD2 entry was “inactive”. The ED50 entry with Rattus norvegicus was “inactive”.
`Nc1ccc2c(c1)CCC1CC(=O)NN=C21` (stereo not given) returned an Activity in the test with Mus musculus of 73.
In the test with Mus musculus, `CC(=O)Nc1ccc2c(c1)CCCC1CC(=O)NN=C21` (stereo not given) gave an Activity of 46. Also, the pD2 result in the test filed under Cavia porcellus is “inactive”. Also, the ED50 entry in the test on Rattus norvegicus is “inactive”.
